Target: T1, GluN1/GluN2A NMDARs (Rattus norvegicus, UniProt P35439+Q00959)
T1 construct: expressed in transfected cells; host or cells: HEK293
Assay: Whole-cell patch clamp recordings in HEK293 cells transfected with GluN1/GluN2A
Type: cell-based
Conditions: Table 1; for Normalized Potentiation: positive modulation of GluN1/GluN2A NMDARs, concentration not given; for EC50: potentiation, read-out: EC50
Experimental: Cells were transfected with a combination of pcDNA3-CMV expression vectors, each of which expressed one of the rat recombinant (GluN2AWT, GluN1WT, GluN2BWT) subunits. The sequences of all plasmids were confirmed by automated DNA sequencing. Human Embryonic Kidney 293 (HEK293 cells) were cultured in Dulbecco's Modified Eagle's Medium (DMEM) (Invitrogen) supplemented with 10% fetal bovine serum (FBS). When HEK293 cells achieved 90% confluence, plasmids of either GluN1 & GluN2A or GluN1 & GluN2B were co-transfected into the cells using Lipofectamine 2000 (Invitrogen, 11668019) according to manufacturer's instructions. HEK293 cells were then maintained in the 37° C. incubator with […] and 5% CO2 for 48 hrs before being used in experiments. The transfection ratios for the NMDAR subunit combinations were all 1:1 (GluN1/GluN2A or GluN1/GluN2B).
Whole cell patch-clamp recordings were performed under voltage-clamp mode using an Axopatch 200B or 1D patch-clamp amplifier (Molecular Devices). Whole-cell currents were recorded at a holding potential of −60 mV unless indicated elsewhere, and signals were filtered at 2 kHz, digitized at 10 kHz (Digidata 1322A). Recording pipettes (3-5 MΩ) were filled with intracellular solution containing (mM): CsCl 140, HEPES 10, Mg-ATP 4, QX-314 5, pH 7.20; osmolarity, 290-295 mOsm. BAPTA (10 mM) was added in the intracellular solution (unless otherwise specified). The coverslips were continuously superfused with extracellular solution containing (mM): NaCl 140, KCl 5.4, HEPES 10, CaCl2 1.3, glucose 20, pH 7.4; osmolarity, 305-315 mOsm. NMDA-induced currents were applied by NMDA through perfusion fast-step (Warner Instruments). With perfusion fast-step system, NMDA application was achieved by using a two-square barrel glass tubing and depending on the age of the cultured neurons, CNQX (10 μM), TTX (0.5 μM) or BIC (10 μM) were added in the extracellular solution to minimize the activation of ionotropic glutamate receptors and voltage-gated sodium channels, respectively. All experiments were performed at room temperature. Recordings from at least six HEK293 cells/neurons were performed for all active compounds. Data were pooled among HEK293 cells or primary neurons and composite dose-response data were fitted by the equation Percentage Response=100×Relative Efficacy/[1+(EC50/Concentration)nH], where EC50 is the concentration of agonist that produces a half-maximal response, relative efficacy is the response at maximally effective concentration relative to the maximal response of glutamate, and nH is the Hill slope.
GluN1/GluN2A NMDAR subtypes are an attractive target for positive allosteric modulation. The present inventors employed in silico computational drug discovery methods to conduct a virtual screen of purchasable lead-like compounds from the ZINC database (Irwin, J., et al. Abstr Pap Am Chem Soc (2005) 230:U1009) and some synthetic compounds to identify potential GluN1/GluN2A-NMDAR modulators. The in silico methods included large-scale docking against the interstice interface of the GluN1/GluN2A heterodimer and consensus scoring to select compounds for empirical testing. Candidate compounds were further screened by using GluN1/GluN2A transiently transfected in human embryonic kidney (HEK293) cells and tested by whole-cell patch clamp recordings.
The inventors used transiently transfected HEK293 cells expressing either GluN1/GluN2A or GluN1/GluN2B NMDARs and tested by whole-cell voltage patch clamp recordings to see whether selected compounds were controlling the subtype selectivity profile of the drugs.
Whole-cell patch clamp recordings were performed to measure glutamate evoked currents with chloride-based pipette solutions at a holding potential of −60 mV.

T1 sequence (Q00959 23-1464, other chains not shown): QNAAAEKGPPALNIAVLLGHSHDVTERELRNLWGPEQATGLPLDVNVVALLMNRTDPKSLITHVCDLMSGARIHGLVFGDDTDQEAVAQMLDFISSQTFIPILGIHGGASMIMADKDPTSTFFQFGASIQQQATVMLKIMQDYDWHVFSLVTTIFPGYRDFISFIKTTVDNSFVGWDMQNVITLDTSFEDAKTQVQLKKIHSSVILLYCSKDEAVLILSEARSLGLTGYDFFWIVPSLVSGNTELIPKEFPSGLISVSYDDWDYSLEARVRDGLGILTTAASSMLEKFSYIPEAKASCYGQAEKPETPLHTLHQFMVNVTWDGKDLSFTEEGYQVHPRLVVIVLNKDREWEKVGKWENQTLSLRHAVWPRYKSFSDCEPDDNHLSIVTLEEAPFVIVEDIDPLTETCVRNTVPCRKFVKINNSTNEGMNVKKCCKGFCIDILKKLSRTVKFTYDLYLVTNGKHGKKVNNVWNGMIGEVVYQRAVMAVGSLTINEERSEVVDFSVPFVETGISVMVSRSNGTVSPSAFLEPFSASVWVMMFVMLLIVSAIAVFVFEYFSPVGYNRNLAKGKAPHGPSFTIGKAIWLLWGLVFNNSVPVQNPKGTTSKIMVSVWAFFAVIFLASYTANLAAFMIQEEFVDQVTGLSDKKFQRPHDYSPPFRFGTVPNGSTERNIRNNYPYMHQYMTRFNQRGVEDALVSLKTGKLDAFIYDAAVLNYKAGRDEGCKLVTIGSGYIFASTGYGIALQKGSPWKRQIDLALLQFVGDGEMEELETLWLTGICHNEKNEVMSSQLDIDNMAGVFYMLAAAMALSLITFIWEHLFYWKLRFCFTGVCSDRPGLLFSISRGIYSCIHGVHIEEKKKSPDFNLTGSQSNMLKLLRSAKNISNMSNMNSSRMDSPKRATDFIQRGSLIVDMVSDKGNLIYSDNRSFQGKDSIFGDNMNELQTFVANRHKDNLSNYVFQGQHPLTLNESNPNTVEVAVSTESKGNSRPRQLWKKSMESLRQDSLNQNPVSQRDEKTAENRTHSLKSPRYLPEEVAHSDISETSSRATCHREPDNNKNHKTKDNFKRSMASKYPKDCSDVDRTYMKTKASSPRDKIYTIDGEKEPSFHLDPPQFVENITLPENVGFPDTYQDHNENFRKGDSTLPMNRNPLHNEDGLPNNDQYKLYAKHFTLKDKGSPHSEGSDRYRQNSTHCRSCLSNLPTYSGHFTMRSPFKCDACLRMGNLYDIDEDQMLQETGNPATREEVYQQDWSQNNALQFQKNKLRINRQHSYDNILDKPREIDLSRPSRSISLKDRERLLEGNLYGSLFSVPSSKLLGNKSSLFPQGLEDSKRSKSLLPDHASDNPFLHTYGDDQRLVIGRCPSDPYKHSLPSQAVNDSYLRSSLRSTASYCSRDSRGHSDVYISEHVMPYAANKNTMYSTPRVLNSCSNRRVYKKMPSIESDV

| Compound | Normalized Potentiation | EC50 |
| --- | --- | --- |
| C=CCc1cc(/C=N/NC(=O)c2ccccc2Br)c(O)c(OC)c1 [Npam03, (E)-N′-(5-allyl-2-hydroxy-3-methoxybenzylidene)-2-bromobenzohydrazide] | 97.62 ± 6.03% |  |
| CCOc1cc(Br)c(Br)c(/C=N/NC(=O)c2ccccc2C)c1O [Npam04C, (E)-N′-(2,3-dibromo-5-ethoxy-6-hydroxybenzylidene)-2-methylbenzohydrazide] | 292.08 ± 44.70% |  |
| COc1cc(Br)c(Br)c(/C=N/NC(=O)c2ccccc2Br)c1O [Npam05, (E)-2-bromo-N′-(2,3-dibromo-6-hydroxy-5-methoxybenzylidene)benzohydrazide] | 196.54 ± 21.20% |  |
| CCOc1cc(Cl)c(Cl)c(/C=N/NC(=O)c2cncc(Br)c2)c1O [Npam06, (E)-5-bromo-N′-(2,3-dichloro-5-ethoxy-6-hydroxybenzylidene)nicotinohydrazide] | 201.19 ± 14.63% |  |
| CCOc1cccc(/C=N/NC(=O)c2cccc(Cl)c2C)c1O [Npam07, (E)-3-chloro-N′-(3-ethoxy-2-hydroxybenzylidene)-2-methylbenzohydrazide] | 103.77 ± 11.00% |  |
| CCOc1cc(Cl)c(Cl)c(/C=N/NC(=O)NC(=O)COc2c(C)ccc(C)c2C)c1O [Npam08, (E)-2-(2,3-dichloro-5-ethoxy-6-hydroxybenzylidene)-N-(2-(2,3,6-trimethylphenoxy)acetyl)hydrazinecarboxamide] | 362.76 ± 38.44% |  |
| CCOc1cc(Br)c(Br)c(/C=N/NC(=O)c2cccc(Cl)c2C)c1O [Npam10, 3-chloro-N′-[(1E)-(2,3-dibromo-5-ethoxy-6-hydroxyphenyl)methylidene]-2-methylbenzohydrazide] | 206.28 ± 33.62% |  |
| CCOc1cc(Br)c(Br)c(/C=N/NC(=O)c2ccccc2OC)c1O [Npam12, (E)-N′-(2,3-dibromo-5-ethoxy-6-hydroxybenzylidene)-2-methoxybenzohydrazide] | 118.15 ± 35.54% |  |
| COc1cc(Br)c(Br)c(/C=N/NC(=O)c2ccc(Cl)cc2)c1O [Npam13, (E)-4-chloro-N′-(2,3-dibromo-6-hydroxy-5-methoxybenzylidene)benzohydrazide] | 195.38 ± 40.11% |  |
| CCOc1cc(Br)cc(/C=N/NC(=O)c2cccc(C)c2C)c1O [Npam15, (E)-N′-(5-bromo-3-ethoxy-2-hydroxybenzylidene)-2,3-dimethylbenzohydrazide] | 89.84 ± 27.86% |  |
| O=C(N/N=C/c1cccc(O)c1O)c1cccc(Br)c1 [Npam16, (E)-3-bromo-N′-(2,3-dihydroxybenzylidene)benzohydrazide] | 36.90 ± 5.62% |  |
| CCOc1cc(Cl)c(Cl)c(/C=N/NC(=O)c2ccccc2C)c1O [Npam17, (E)-N′-(2,3-dichloro-5-ethoxy-6-hydroxybenzylidene)-2-methylbenzohydrazide] | 130.54 ± 13.63% |  |
| CCOc1cc(Cl)cc(/C=N/NC(=O)c2ccccc2Br)c1O [Npam18, (E)-2-bromo-N′-(5-chloro-3-ethoxy-2-hydroxybenzylidene)benzohydrazide] | 213.58 ± 43.58% |  |
| COc1cc(Cl)cc(/C=N/NC(=O)c2ccccc2Br)c1O [Npam20, (E)-2-bromo-N′-(5-chloro-2-hydroxy-3-methoxybenzylidene)benzohydrazide] | 131.85 ± 23.20% |  |
| CCOc1cc(Br)cc(/C=N/NC(=O)c2ccccc2N)c1O [Npam21, (E)-2-amino-N′-(5-bromo-3-ethoxy-2-hydroxybenzylidene)benzohydrazide] | 37.27 ± 4.64% |  |
| CCOc1cc(Br)cc(/C=N/NC(=O)c2ccc(F)cc2)c1O [Npam22, (E)-N′-(5-bromo-3-ethoxy-2-hydroxybenzylidene)-4-fluorobenzohydrazide] | 59.83 ± 7.55% |  |
| CCOc1cc(Br)cc(/C=N/NC(=O)c2ccc3c(c2)OCCO3)c1O [Npam23, (E)-N′-(5-bromo-3-ethoxy-2-hydroxybenzylidene)-2,3-dihydrobenzo[b][1,4]dioxine-6-carbohydrazide] | 87.00 ± 6.48% |  |
| CCOc1cc([N+](=O)[O-])cc(/C=N/NC(=O)c2cc(Cl)ccc2O)c1O [Npam24, (E)-5-chloro-N′-(3-ethoxy-2-hydroxy-5-nitrobenzylidene)-2-hydroxybenzohydrazide] | 61.57 ± 8.15% |  |
| COc1cc(Br)cc(/C=N/NC(=O)c2ccc(NC(=O)c3ccc(C)cc3)cc2)c1O [Npam25, (E)-N-(4-(2-(5-bromo-2-hydroxy-3-methoxybenzylidene)hydrazinecarbonyl)phenyl)-4-methylbenzamide] | −14.32 ± 2.20% |  |
| O=C(N/N=C/c1cc(Cl)cc(Cl)c1O)c1ccccc1Br [Npam26, (E)-2-bromo-N′-(3,5-dichloro-2-hydroxybenzylidene)benzohydrazide] | 175.08 ± 14.42% |  |
| CCOc1cc(/C=N/NC(=O)c2ccccc2Br)cc(Br)c1O [Npam27, (E)-2-bromo-N′-(3-bromo-5-ethoxy-4-hydroxybenzylidene)benzohydrazide] | −0.278 ± 5.62% |  |
| CCOc1cc(Br)cc(/C=N/NC(=O)c2ccncc2)c1O [Npam28, N′-[(1E)-(5-bromo-3-ethoxy-2-hydroxyphenyl)methylidene]pyridine-4-carbohydrazide] | 30.25 ± 2.87% |  |
| COc1cc(Cl)cc(/C=N/NC(=O)c2ccccc2Br)c1O [Npam29, (E)-2-bromo-N′-(5-chloro-2-hydroxy-3-methoxybenzylidene)benzohydrazide] | 120.68 ± 9.61% |  |
| CCOc1cccc(/C=N/NC(=O)c2ccccc2Br)c1O [Npam31, 2-bromo-N′-[(1E)-(3-ethoxy-2-hydroxyphenyl)methylidene]benzohydrazide] | 15.11 ± 8.78% |  |
| CCOc1cc(Cl)c(Cl)c(/C=N/NC(=O)c2cccc(Br)c2)c1O [Npam32, (E)-3-bromo-N′-(2,3-dichloro-5-ethoxy-6-hydroxybenzylidene)benzohydrazide] | 374.58 ± 19.07% | 250 nM |
| Cc1ccccc1C(=O)N/N=C/c1cccc(O)c1O [Npam34, (E)-N′-(2,3-dihydroxybenzylidene)-2-methylbenzohydrazide] | −12.47 ± 2.06% |  |
| COc1cc(Br)c(Br)c(/C=N/NC(=O)c2ccc(C(C)(C)C)cc2)c1O [Npam35, (E)-4-(tert-butyl)-N′-(2,3-dibromo-6-hydroxy-5-methoxybenzylidene)benzohydrazide] | 512.24 ± 28.67% | 220 nM |
| O=C(N/N=C/c1cccc(O)c1O)c1ccc(Cl)cc1Cl [Npam36, (E)-2,4-dichloro-N′-(2,3-dihydroxybenzylidene)benzohydrazide] | 4.02 ± 4.79% |  |
| COc1cc(Br)c(Br)c(/C=N/NC(=O)c2cccc(F)c2)c1O [Npam37, (E)-N′-(2,3-dibromo-6-hydroxy-5-methoxybenzylidene)-3-fluorobenzohydrazide] | 435.94 ± 156.01% |  |
| CCOc1cc(Br)cc(/C=N/NC(=O)c2cccc(Br)c2)c1O [Npam38, (E)-3-bromo-N′-(5-bromo-3-ethoxy-2-hydroxybenzylidene)benzohydrazide] | 426.44 ± 87.65% | 190 nM |
